Assay results taken from US10626112B2, “Heterocyclic sulfonamide derivative and medicine comprising same” (EA PHARMA CO., LTD., priority 2014, dated 2020).

These molecules were tested against human TRPA1 (Homo sapiens (Human), UniProt O75762) (assay: Measurement of TRPA1 antagonist activity (1): intracellular calcium increase). Settings: 293T cells transfected with human TRPA1 expression plasmid; allylisothiocyanate 20 μM stimulation; intracellular calcium fluorescence; read-out: hTRPA1 IC50.
Type: cell-based
Outline: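 Calcium-flux readout of TRPA1 block: compound given 10 min before 20 μM (final) allylisothiocyanate, fluorescence tracked 5 min. Cells were 293T transiently expressing human TRPA1, dye-loaded 1 hr in HBSS, 20 mM HEPES, pH 7.2. Inhibition scaled between agonist-only and buffer-only responses; IC50 by sigmoid fitting.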

human TRPA1, sequence (O75762 whole entry): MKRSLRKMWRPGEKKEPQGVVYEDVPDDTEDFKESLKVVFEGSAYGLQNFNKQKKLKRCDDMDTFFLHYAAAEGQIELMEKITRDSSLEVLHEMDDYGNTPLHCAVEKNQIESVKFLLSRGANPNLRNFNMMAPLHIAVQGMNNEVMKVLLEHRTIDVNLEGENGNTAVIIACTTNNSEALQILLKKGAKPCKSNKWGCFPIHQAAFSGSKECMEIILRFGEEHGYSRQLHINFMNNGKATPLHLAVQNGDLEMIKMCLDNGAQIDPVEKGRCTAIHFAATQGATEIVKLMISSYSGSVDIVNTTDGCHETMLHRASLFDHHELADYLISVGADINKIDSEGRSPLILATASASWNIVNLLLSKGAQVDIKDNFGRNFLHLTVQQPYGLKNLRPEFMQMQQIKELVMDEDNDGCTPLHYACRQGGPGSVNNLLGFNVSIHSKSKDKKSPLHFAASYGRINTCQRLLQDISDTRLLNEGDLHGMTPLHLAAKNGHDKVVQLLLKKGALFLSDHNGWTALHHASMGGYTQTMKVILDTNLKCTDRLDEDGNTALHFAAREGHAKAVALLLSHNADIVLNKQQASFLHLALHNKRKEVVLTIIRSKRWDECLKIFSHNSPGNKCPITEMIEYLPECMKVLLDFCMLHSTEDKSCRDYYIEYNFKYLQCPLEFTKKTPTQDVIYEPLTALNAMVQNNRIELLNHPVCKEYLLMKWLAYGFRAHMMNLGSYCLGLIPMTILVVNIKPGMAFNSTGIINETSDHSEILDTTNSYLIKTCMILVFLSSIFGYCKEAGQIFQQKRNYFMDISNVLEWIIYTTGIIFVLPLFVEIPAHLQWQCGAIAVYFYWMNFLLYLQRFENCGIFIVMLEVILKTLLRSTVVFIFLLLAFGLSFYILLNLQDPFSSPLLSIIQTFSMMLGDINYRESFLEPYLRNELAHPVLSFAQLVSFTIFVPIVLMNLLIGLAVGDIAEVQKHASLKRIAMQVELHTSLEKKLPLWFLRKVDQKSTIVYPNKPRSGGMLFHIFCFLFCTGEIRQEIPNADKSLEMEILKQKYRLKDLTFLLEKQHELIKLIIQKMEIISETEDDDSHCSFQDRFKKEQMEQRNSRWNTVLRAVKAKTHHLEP

| Structure (SMILES) | IC50 [nM] |
| --- | --- |
| CN(C)c1ccc(-c2cccc(CNC(=O)[C@@H]3CCCN3S(=O)(=O)c3cc4cc(F)ccc4o3)c2)cn1 [Example 159, (2S)-N-[[3-[6-(dimethylamino)-3-pyridyl]phenyl]methyl]-1-(5-fluorobenzofuran-2-yl)sulfonyl-pyrrolidine-2-carboxamide] | 6.2 |
| O=C(NCc1cc(-c2ccc(C(F)(F)F)cc2)ncn1)[C@@H]1CCCN1S(=O)(=O)c1cc2cnccc2o1 [Example 270, (2S)-1-furo[3,2-c]pyridin-2-ylsulfonyl-N-[[6-[4-(trifluoromethyl)phenyl]-pyrimidin-4-yl]methyl]pyrrolidine-2-carboxamide] | 3.8 |
| C[C@H](NS(=O)(=O)c1cc2ccccc2o1)C(=O)NCc1cccc(OCc2ccc(C#N)cc2)c1 [Example 182, (2S)-2-(benzofuran-2-ylsulfonylamino)-N-[[3-[(4-cyanophenyl)methoxy]phenyl]methyl]propanamide] | 94 |
| Cc1ccc(-c2ccnc(CNC(=O)[C@@H]3CCCN3S(=O)(=O)c3cc4ccccc4o3)c2)cc1 [Example 284, (2S)-1-(benzofuran-2-ylsulfonyl)-N-[[4-(p-tolyl)-2-pyridyl]methyl]pyrrolidine-2-carboxamide] | 76 |
| C[C@H](NS(=O)(=O)c1cc2cc(F)ccc2o1)C(=O)NCc1ccnc(-c2ccc(C(F)(F)F)nc2)c1 [Example 236, (2S)-2-[(5-fluorobenzofuran-2-yl)sulfonylamino]-N-[[2-[6-(trifluoromethyl)-3-pyridyl]-4-pyridyl]methyl]propanamide] | 31 |
| N#Cc1ccc(-c2cc(CNC(=O)[C@@H]3CCCN3S(=O)(=O)c3cc4ccccc4o3)ccn2)c(OCc2ccccc2)c1 [Example 126, (2S)-1-(benzofuran-2-ylsulfonyl)-N-[[2-(2-benzyloxy-4-cyano-phenyl)-4-pyridyl]methyl]pyrrolidine-2-carboxamide] | 78 |
| CN(C)[C@@H]1C[C@@H](C(=O)NCc2ccnc(-c3ccc(C(F)(F)F)cc3O)c2)N(S(=O)(=O)c2cc3ccccc3o2)C1 [Example 334, (2S,4R)-1-(benzofuran-2-ylsulfonyl)-4-(dimethylamino)-N-[[2-[2-hydroxy-4-(trifluoromethyl)phenyl]-4-pyridyl]methyl]pyrrolidine-2-carboxamide] | 630 |
| O=C(NCc1cccc(Oc2ccc(C(F)(F)F)cc2)c1)[C@@H]1CCCN1S(=O)(=O)c1cc2cnccc2o1 [Example 269, (2S)-1-furo[3,2-c]pyridin-2-ylsulfonyl-N-[[3-[4-(trifluoromethyl)phenoxy]-phenyl]methyl]pyrrolidine-2-carboxamide] | 4.3 |
| C[C@H](NS(=O)(=O)c1cc2ccccc2o1)C(=O)NCc1cccc(-c2ccc(C(F)(F)F)cn2)c1 [Example 102, (2S)-2-(benzofuran-2-ylsulfonylamino)-N-[[3-[5-(trifluoromethyl)-2-pyridyl]phenyl]methyl]propanamide] | 28 |
| O=C(NCc1ccccc1OC(F)(F)F)[C@@H]1CCCN1S(=O)(=O)c1cc2ccccc2o1 [Example 64, (2S)-1-(benzofuran-2-ylsulfonyl)-N-[[2-(trifluoromethoxy)phenyl]methyl]-pyrrolidine-2-carboxamide] | 100 |
| O=C(NCc1ccc(-c2ccccc2)cc1)[C@@H]1CCCN1S(=O)(=O)c1cc2cc(F)ccc2o1 [Example 76, (2S)-1-(5-fluorobenzofuran-2-yl)sulfonyl-N-[(4-phenylphenyl)methyl]pyrrolidine-2-carboxamide] | 47 |
| O=C(NCc1cc(C2=CCCCC2)ccn1)[C@@H]1CCCN1S(=O)(=O)c1cc2ccccc2o1 [Example 283, (2S)-1-(benzofuran-2-ylsulfonyl)-N-[[4-(cyclohexen-1-yl)-2-pyridyl]methyl]pyrrolidine-2-carboxamide] | 250 |
| O=C(NCc1cccc(OCc2cccc(CN3CCOCC3)c2)c1)[C@@H]1CCCN1S(=O)(=O)c1cc2cc(F)ccc2o1 [Example 27, (2S)-1-(5-fluorobenzofuran-2-yl)sulfonyl-N-[[3-[[3-(morpholinomethyl)phenyl]-methoxy]phenyl]methyl]-pyrrolidine-2-carboxamide] | 8.2 |
| O=C(NCc1cccc(C[S+]([O-])c2ccc(C(F)(F)F)cc2)c1)[C@@H]1CCCN1S(=O)(=O)c1cc2ccccc2o1 (stereo partly drawn) [Example 325, (2S)-1-(benzofuran-2-ylsulfonyl)-N-[[3-[[4-(trifluoromethyl)phenyl]sulfinylmethyl]phenyl]methyl]pyrrolidine-2-carboxamide] | 560 |
| C[C@H](NS(=O)(=O)c1cc2ccccc2o1)C(=O)NCc1cc(-c2ccc(C(F)(F)F)cc2)ncn1 [Example 104, (2S)-2-(benzofuran-2-ylsulfonylamino)-N-[[6-[4-(trifluoromethyl)phenyl]pyrimidin-4-yl]methyl]propanamide] | 14 |
| O=C(NCc1cc(-c2ccc(C(F)(F)F)cc2O)ncn1)[C@@H]1CCCN1S(=O)(=O)c1cc2cc(F)ccc2o1 [Example 289, (2S)-1-(5-fluorobenzofuran-2-yl)sulfonyl-N-[[6-[2-hydroxy-4-(trifluoromethyl)phenyl]pyrimidin-4-yl]methyl]pyrrolidine-2-carboxamide] | 1.4 |
| O=C(NCc1cccc(OCc2ccc(C(F)(F)F)cn2)c1)[C@@H]1CCCN1S(=O)(=O)c1cc2ccccc2o1 [Example 291, (2S)-1-(benzofuran-2-ylsulfonyl)-N-[[3-[[5-(trifluoromethyl)-2-pyridyl]methoxy]phenyl]methyl]pyrrolidine-2-carboxamide] | 28 |
| O=C(NCc1ccc(F)c(-c2ccc(C(F)(F)F)cn2)c1)[C@@H]1CCCN1S(=O)(=O)c1cc2ccccc2o1 [Example 309, (2S)-1-(benzofuran-2-ylsulfonyl)-N-[[4-fluoro-3-[5-(trifluoromethyl)-2-pyridyl]phenyl]methyl]pyrrolidine-2-carboxamide] | 10 |
| COC(=O)C(Oc1cccc(CNC(=O)[C@@H]2CCCN2S(=O)(=O)c2cc3cc(F)ccc3o2)c1)c1ccccc1 (stereo partly drawn) [Example 29, methyl 2-[3-[[[(2S)-1-(5-fluorobenzofuran-2-yl)sulfonylpyrrolinidine-2-carbonyl]amino]methyl]-phenoxy]-2-phenylacetate] | 340 |
| CC(C)(C)OC[C@H](NS(=O)(=O)c1cc2cc(F)ccc2o1)C(=O)NCc1cccc(-c2ccc(C(F)(F)F)nc2)c1 [Example 189, (2S)-3-tert-butoxy-2-[(5-fluorobenzofuran-2-yl)sulfonylamino]-N-[[3-[6-trifluoromethyl-3-pyridyl]phenyl]methyl]propanamide] | 840 |
| O=C(NCc1cccc(OC2CCOCC2)c1)[C@@H]1CCCN1S(=O)(=O)c1cc2cc(F)ccc2o1 [Example 33, (2S)-1-(5-fluorobenzofuran-2-yl)sulfonyl-N-[(3-tetrahydropyran-4-yloxyphenyl)methyl]-pyrrolidine-2-carboxamide] | 160 |
| O=C(NCc1cccc(F)c1)[C@@H]1CCCN1S(=O)(=O)c1cc2ccccc2o1 [Example 59, (2S)-1-(benzofuran-2-ylsulfonyl)-N-[(3-fluorophenyl)methyl]pyrrolidine-2-carboxamide] | 540 |
| CC#CCN([C@@H](C)C(=O)NCc1ccnc(-c2ccc(C(F)(F)F)nc2)c1)S(=O)(=O)c1cc2cc(F)ccc2o1 [Example 313, (2S)-2-[but-2-ynyl-(5-fluorobenzofuran-2-yl)sulfonyl-amino]-N-[[2-[6-(trifluoromethyl)-3-pyridyl]-4-pyridyl]methyl]propanamide] | 37 |
| O=C(NCc1ccnc(-c2cnc(C3CC3)nc2)c1)[C@@H]1CCCN1S(=O)(=O)c1cc2cc(F)ccc2o1 [Example 134, (2S)-N-[[2-(2-cyclopropylpyrimidin-5-yl)-4-pyridyl]methyl]-1-(5-fluorobenzofuran-2-yl)sulfonyl-pyrrolidine-2-carboxamide] | 42 |
| C[C@H](NS(=O)(=O)c1cc2cc(F)ccc2o1)C(=O)NCc1ccc(O)c(-c2ncc(C(F)(F)F)cn2)c1 [Example 253, (2S)-2-[(5-fluorobenzofuran-2-yl)sulfonylamino]-N-[[4-hydroxy-3-[5-(trifluoromethyl)pyrimidin-2-yl]phenyl]methyl]propanamide] | 160 |
| O=C(NCc1cccc(OCc2ccc(C(F)(F)F)cc2)c1)[C@@H]1CCCN1S(=O)(=O)c1cc2c(F)cccc2o1 [Example 42, (2S)-1-(4-fluorobenzofuran-2-yl)sulfonyl-N-[[3-[[4-(trifluoromethyl)phenyl]methoxy]-phenyl]methyl]pyrrolidine-2-carboxamide] | 7.1 |
| O=C(NC1(c2cc(Cl)cc(-c3ccc(C(F)(F)F)nc3)c2)CC1)[C@@H]1CCCN1S(=O)(=O)c1cc2ccccc2o1 [Example 216, (2S)-1-(benzofuran-2-ylsulfonyl)-N-[1-[3-chloro-5-[6-(trifluoromethyl)-3-pyridyl]phenyl]cyclopropyl]-pyrrolidine-2-carboxamide] | 13 |
| N#Cc1ccc(COc2cc(F)cc(CNC(=O)[C@@H]3CCCN3S(=O)(=O)c3cc4cc(F)ccc4o3)c2)cc1 [Example 36, (2S)-N-[[3-[(4-cyanophenyl)methoxy]-5-fluoro-phenyl]methyl]-1-(5-fluorobenzofuran-2-yl)sulfonyl-pyrrolidine-2-carboxamide] | 1.5 |
| C[C@H](NS(=O)(=O)c1cc2cc(F)ccc2o1)C(=O)NCc1cc(-c2ccc(C(F)(F)F)cn2)ncn1 [Example 247, (2S)-2-[(5-fluorobenzofuran-2-yl)sulfonylamino]-N-[[6-[5-(trifluoromethyl)-2-pyridyl]pyrimidin-4-yl]methyl]propanamide] | 64 |
| O=C(NCc1ccnc(-c2cc(C(F)(F)F)n[nH]2)c1)[C@@H]1CCCN1S(=O)(=O)c1cc2ccccc2o1 [Example 294, (2S)-1-(benzofuran-2-ylsulfonyl)-N-[[2-[3-(trifluoromethyl)-1H-pyrazol-5-yl]-4-pyridyl]methyl]pyrrolidine-2-carboxamide] | 170 |
